Results reported in US20250205217A1, “METHODS OF IMPROVING CANCER IMMUNOTHERAPY” (THE REGENTS OF THE UNIVERSITY OF CALIFORNIA, priority 2022, published 2025).
Entries after “also recorded” stand apart in the source; their conditions may differ.

How the values were obtained:
B16F10 melanoma cells = assay: B16F10 melanoma tumor volume over time; format: in vivo, mice; settings: omega-6 rich diet; 5 mg/kg/day via drinking water + anti-CTLA4; vs either agent alone
Description: (§1) (A) MB49 bladder cancer tumor volume over time. Following 12 days of pre-treatment with the omega-6 rich diet, tumor cells (1×10^6 MB49 bladder cancer cells) were injected subcutaneously into the mid dorsum. Once tumors reached ˜200 mm^3, treatment was initiated with anti-PD1 (200 μg Q3D), EC5026 (5 mg/kg/day via drinking water), combination anti-PD1+EC5026, or no treatment (control). […] N=3-5 mice per group. P<0.05. (B) B16F10 melanoma tumor volume over time. […]. Following 12 days of pre-treatment with the omega-6 rich diet, tumor cells (1×10^6 B16F10 melanoma cells) were injected subcutaneously into the mid dorsum. Once tumors reached ˜200 mm^3, treatment was initiated with anti-CTLA4 (200 μg 1st dose, then 100 μg Q3D), 1770 (5 mg/kg/day via drinking water), combination 1770+anti-CTLA4, or no treatment (control). […] N=4-5 mice per group.
(A) MB49 bladder cancer tumor volume over time. Following 12 days of pre-treatment with the omega-3 rich diet or control diet, tumor cells (1×10^6 MB49 bladder cancer cells) were injected subcutaneously into the mid dorsum. Once tumors reached ˜200 mm^3, treatment was initiated with either anti-PD1 (200 μg Q3D) or no treatment (control). […] N=3-5 mice per group. p<0.0001. (B) Prostate cancer (RM1) tumor volume over time. […]

[1] = system: MB49 bladder cancer cells; assay: Murine bladder cancer model (MB49), subcutaneous tumor growth; format: in vivo, mice; settings: for MB49 tumor volume, combination with anti-PD1: omega-6 rich diet, 5 mg/kg/day via drinking water + anti-PD1 200 μg Q3D, vs either agent alone, P<0.05
Excerpt: 10^6 MB49 cells were introduced into mice, and treatment was initiated with established tumors (˜200 mm^3), seven days after tumor injection. The CTLA-4 antibody used is from BioCell, Catalog number BE0131; In VivoMAb anti-mouse CTLA-4 (CD152). See, FIG. 1A and FIG. 1B.
The mice in this study were randomized, and treatment was initiated with established tumors (˜200 mm^3), seven days after […]. See, FIG. 2A-2C; FIG. 9A-9F.
(A & B). Mice were inoculated subcutaneously with 1×10^6 MB49 cells. Treatment initiated when MB49 tumors reached ˜200 mm^3. Mice were randomized and treated with PTUPB (60 mg/kg Q3D, orally) or chemotherapy (cisplatin+gemcitabine; cisplatin=5 mg/kg, gemcitabine=75 mg/kg, Q3D). Mice were sacrificed after 16 days of treatment. n=4-5 mice/group. Gene expression levels of sEH and COX-2 in tumor tissue after 16 days of treatment. Analyzed by qPCR and normalized by GAPDH. A: **Control vs chemotherapy (p=0.0099), **PTUPB vs chemotherapy (p=0.0095); B. **Control vs chemotherapy (p=0.0072), ***PTUPB vs chemotherapy (p=0.0001). (C) Mice were inoculated subcutaneously with 1×10^6 MB49 cells. Treatment initiated when MB49 tumors reached ˜200 mm^3. Mice were randomized and treated with combinations of PTUPB (60 mg/kg Q3D, orally), anti-PD1 (200 μg Q3D), anti-CTLA4 ([…]), chemotherapy (cisplatin+gemcitabine; cisplatin=5 mg/kg, gemcitabine=75 mg/kg, Q3D). Mice were sacrificed after 16 days of treatment. n=4-5 mice/group. *p<0.05. (D and E). Gene expression levels of EGF and VEGF-C in tumor tissue after 16 days of treatment. Analyzed by qPCR and normalized by GAPDH. D: *chemotherapy vs chemotherapy+PTUPB (p=0.0136); E: **Control vs anti-CTLA4 (p=0.0012), **PTUPB vs anti-CTLA4 (p=0.0081), **anti-CTLA4 vs anti-CTLA4+PTUPB (0.0296). (F) Mice were inoculated orthotopically into the bladder wall with 5×10^5 MB49 cells. Treatment was initiated 3 days after tumor injection with PTUPB (60 mg/kg Q3D, orally). n=5 mice per group. **PTUPB vs control (p=0.0018).
as §1
FIGS. 6A-6E Dietary omega-3 supplementation inhibits tumor growth in both fast-growing and slow-growing tumor models in mice. (A) Prostate cancer (RM1) tumor growth over time. Following 12 days of pre-treatment with the omega-3 rich diet or control diet, tumor cells (1×10^5 RM1 prostate cancer cells) were injected subcutaneously into the mid dorsum. […] N=3-5 mice/group. (B) MB49 bladder cancer tumor volume over time. Following 12 days of pre-treatment with the omega-3 rich diet or control diet, tumor cells (1×10^6 MB49 bladder cancer cells) were injected subcutaneously. […] N=3-5 mice/group. […]

oxylipin = assay: LCMS/MS oxylipin analysis of MB49 bladder cancer tumor tissue; format: in vivo; settings: mice on the control diet only
Description: These lipid mediators are potential biomarkers of bladder cancer and the anti-tumor response to the diets (e.g. omega-3 or omega-6 fatty acids), immunotherapy (e.g., anti-PD1), and sEH inhibitor (e.g., 5026). (A) Heatmap of LCMS/MS oxylipin analysis performed on murine MB49 bladder cancer tumor tissue. […] Tumor tissue from mice treated with the control diet only. […] Tumor tissue from mice treated with the control diet only.

SMILES: CCC(=O)N1CCC(NC(=O)Nc2ccc(OC(F)(F)F)cc2)CC1 [Compound 1770]
- B16F10 melanoma tumor volume, combination with anti-CTLA4 (B16F10 melanoma cells): tended to have smaller tumors

SMILES: NS(=O)(=O)c1ccc(-n2nc(CCCNC(=O)Nc3ccc(C(F)(F)F)cc3)cc2-c2ccccc2)cc1 [PTUPB]
- tumor growth, combination with immunotherapy (anti-CTLA-4) ([1]; 10^6 MB49 cells, established tumors (~200 mm^3), seven days after tumor injection, FIG. 1): unexpected induction of tumor regression; also recorded: enhances immunotherapy
- tumor growth, alone and with chemotherapy or immunotherapy ([1]; PTUPB 60 mg/kg Q3D orally, MB49, FIG. 9): blocks tumor growth and enhances chemotherapy and immunotherapy
- tumor growth, combination with chemotherapy (gemcitabine and cisplatin) and immunotherapy ([1]; established MB49 tumors (~200 mm^3), 16 days of treatment, FIG. 2, FIG. 9): unexpected induction of tumor regression; also recorded: induce tumor regression

SMILES: CC[C@H](C)C(=O)N1CCC(NC(=O)Nc2ccc(OC(F)(F)F)c(F)c2)CC1 [EC5026]
- levels of 7,8-DiHDPE, 17,18-DiHETE, and 15,16-DiHODE in MB49 bladder cancer tissue (oxylipin): prevented this increase
- levels of 15(16)-EpODE, 12(13)-EpOME, 17(18)-EpETE and 14(15)-EpETrE in MB49 bladder cancer tissue (oxylipin): prevented the drop in these metabolites, and increased levels of these metabolites compared to controls
- MB49 tumor volume, combination with anti-PD1 ([1]; 5 mg/kg/day): significantly smaller tumors
- MB49 tumor volume, combination with anti-PD1 ([1]; listed as 5026, 5 mg/kg/day): unexpected induction of tumor regression; also recorded: synergizes with immunotherapy
